“Also recorded” adds a separate entry of the source.
What was measured:
[1] = system: eat-2(ad465) mutant C. elegans; experiment: Lifespan assay, eat-2 mutant C. elegans; assay type: in vivo
Description: Lifespan assays were performed with (A) wild-type (N2), (B) sir-2.1(ok434) mutant, (C) aak-2(ok524), (D) daf-16(mu86), (E) eat-2(ad465) and (F) daf-2(e1370) mutant strains of C. elegans maintained during their full life on plates supplemented with either 50 μM of urolithin A or with a control treatment and seeded with OP50 bacteria. Control plates without urolithin A contained an equivalent concentration of DMSO. Worm lifespan assays were performed at 20° C.
eat-2 encodes a protein involved in pharyngeal pumping.

[2] = system: C. elegans fed vps-34 RNAi; experiment: Lifespan with RNAi against vps-34; assay type: in vivo; details: 50 μM; vs empty vector; FIG. 10B
Description: Lifespan tests were performed as described. Mouchiroud L et al. (2011) Aging Cell 10:39-54. Briefly, worms were observed using a Nikon SMZ1500 stereomicroscope (Nikon, Melville, NY, USA). Briefly, 10 L4 worms were transferred on plates containing NGM medium with vehicle (DMSO 0.1%, final concentration) or urolithin A dissolved in DMSO (final concentration 50 μM) and seeded with E. coli RNAi clones as indicated. After 3 days (corresponding to day 0), newly developed 60-100 L4 worms were used per condition, scored and transferred to fresh plates every 3 days starting from day 1 (young adult worms). All lifespan experiments were performed at 20° C.
Survival analyses were performed using the Kaplan Meier method and the significance of differences between survival curves calculated using the log rank test. Differences between two groups were assessed using two-tailed t-tests. Analysis of variance, assessed by Bonferroni's multiple comparison test, was used when comparing more than two groups. The statistical software used was GraphPad Prism 5 (GraphPad Software, Inc.) and all p-values <0.05 were considered significant.
Gene silencing was carried out as previously described by using the RNA interference (RNAi) process. Mouchiroud L et al. (2011) Aging Cell 10:39-54. In C. elegans, RNAi is made by feeding. […]

[3] = system: C. elegans wild type (N2, Bristol); experiment: Mobility tracking of C. elegans during aging; assay type: in vivo; details: days 1, 3, 5 and 8 of adulthood; 50 μM; FIG. 12
Description: To examine the effect of urolithins on muscle activity during aging, C. elegans mobility was examined over time. Synchronized populations of wild-type nematodes were prepared by standard methods and cultivated at 20° C. on NGM agar containing E. Coli (OP50) with or without test compounds (ellagic acid (EA), urolithins A (UA), and B (UB)). At Day 0, five plates were prepared, each containing 10 young adult worms. Worms were assayed for mobility at different ages, day 1, 3, 5 and 8 of adulthood. The wild type (N2, Bristol) worm strain was employed for these studies.
For C. elegans movement tracking, 45 seconds of video were recorded using a Nikon DS-L2/DS-Fi1 camera and controller setup, attached to both a computer and a standard bright field microscope, tracking an entire plate of 10 worms, with 5 plates per condition. The movement of worms during this time was calculated using an adapted version of the freely-available software Parallel Worm Tracker for MATLAB. The total movement over the 45 second tracking was averaged across all worms for each condition. This experiment was repeated twice with between 40 and 70 worms per condition.

liver of C57BL/6J mice = experiment: Autophagy in liver of mice after oral urolithin A; assay type: in vivo, mouse; details: oral 55 mg/kg/d in chow, 8 weeks
Description: To determine the ability of urolithin A to induce autophagy in vivo, healthy 10-week-old C57BL/6J mice were treated with either a standard rodent diet or a diet containing urolithin A mixed with food to reach a dosing of 55 mg/kg/day delivered to the mice. Following 8 weeks of treatment with urolithin A, mice were sacrificed and the liver of each animal was surgically isolated. The isolated livers were then placed in lysis buffer and prepared for western blot analysis.
Protein expression levels were examined for autophagy related proteins LC3-I and LC3-II (Cell Signaling antibody #4108), p62 (Cell Signalling antibody #5114), AMPKα (Cell Signaling antibody #2603), and p-AMPKα(Cell Signaling antibody #2531). The housekeeping protein, HSP90 (BD Transduction Laboratories antibody #610418) level was measured as a loading control. Each lane in the Western blot represents a protein sample for the liver of a single mouse, to permit observation of the effects aver a number of treated animals.

[4] = system: gastrocnemius muscles of aged C57BL/6J mice; experiment: Autophagy in skeletal muscle of aged mice; assay type: in vivo, mouse; details: 50 mg/kg/day in food, 34 weeks
Description: Locomotor activity may be also assessed by measuring animal movements using infrared detection. To determine the effects of urolithin A on spontaneous locomotor activity in aged animals, 16-month-old C57BL/6J mice were treated with either a standard rodent diet or a diet containing urolithin A mixed with food to reach a dosing of 50 mg/kg/day delivered to mice. Following 34 weeks of treatment with urolithin A, mice were placed in a locomotor activity monitoring system, TSE Systems. Infrared transmitters and receivers are placed in the x, y, and z axis. Interruption of the infrared beams in the x, y axis by the passage of the mouse, allows for a measurement of the horizontal movement (ambulation). Interruption of the infrared beams in the z axis by the mouse, allows for the measurement of rearing behavior. Each beam interruption results in one count being recorded. Total counts were measured for each 30 minute period over a two day period. The total counts observed during the 12 hour dark period, which corresponds to the time of highest activity in mice, were summed for each animal.
Following 34 weeks of treatment, the mice from Example 19 were sacrificed and the organs were collected. The gastrocnemius muscles were assessed for the presence of autophagy by the assessment of the change in the ratio of the autophagy markers LC3 and p62 using western blot analysis. Each lane corresponds to a muscle sample from an individual mouse. The ratio of LC3-II/LC3-I increased in the muscles of urolithin A (UA)-treated mice versus untreated mice. This was accompanied by a decrease in the levels of p62 in the muscles of UA treated versus untreated mice. These shifts in the levels of LC3 and p62 in the muscle of mice are consistent with an increase in the level of autophagy taking place.

O=c1oc2cc(O)ccc2c2ccc(O)cc12 [Urolithin A, urolithin A]
Median lifespan ([1]; 50 μM UA): 37 days
Lifespan extension compared to control (%) ([1]; 50 μM UA vs 1% DMSO): +76.2%
lifespan extension by urolithin A under vps-34 RNAi [2]: suppressed; also recorded: totally suppress the lifespan phenotype
age related mobility decline [3]: marked ability to reduce muscle function decline
p62 protein levels (liver of C57BL/6J mice): decreased
phosphorylated AMPKα / ratio of p-AMPKα/AMPKα (liver of C57BL/6J mice; 55 mg/kg/day): increased levels
ratio of LC3-II to LC3-I (liver of C57BL/6J mice; FIG. 19, 55 mg/kg/day): increased
increase in autophagy over control untreated mice based on the ratio of LC3-II/LC3-I (liver of C57BL/6J mice; average): approximately 400%
levels of p62 [4]: decreased
ratio of p-AMPKα/AMPKα [4]: increase
ratio of LC3-II/LC3-I ([4]; FIG. 24): increased
levels of p62 ([4]; listed as UA): decrease
